Test results taken from patent US20120244553A1, “BIOMARKER OF ALLERGIC DISEASE AND USE OF THE SAME” (UNIVERSITY OF TOYAMA, priority 2007, published 2012).
“Also recorded” adds a separate entry of the source.

What was measured:
[1] = tested on: primary afferent; details: sensitized mouse; cited from earlier work
[2] = tested on: mosquito salivary gland extract-induced scratching behavior; details: mouse; cited from earlier work
[3] = tested on: mice; details: animals such as mice; cited from earlier work
[4] = tested on: granzyme A-induced scratching behavior; assay: Suppression of scratching behavior induced by intradermal injection of granzyme A; format: in vivo, mouse; details: naltrexone injected 15 minutes before granzyme A
Experimental: (§1) On the day before the experiment, the hair on the rostral back of each mouse was removed. On the day of the experiment, the mouse was left in an observation cage for 1 hour to familiarize the mouse with the environment. After the familiarization, granzyme A (0.1 to 100 μg/site) or ESGM (10 μg/50 μL) was intradermally injected to the rostral back of the mouse. The mouse was returned to the observation cage (13×9×30 cm) immediately after the administration, and the behavior with no observer present was filmed with an 8-mm video camera. A protease inhibitor in an amount of 0.05 mL per 10 g of body weight of the mouse was injected into the tail vein 30 seconds before the administration of ESGM. Naltrexone in an amount of 0.1 mL per 10 g of body weight of the mouse was intradermally injected 15 minutes before the administration of granzyme A. The behavior after the injection was observed by playing back the video. Scratching behavior was determined by counting the number of times there was scratching of the injection portion and nearly areas with the hind paws. A mouse usually scratches several times for about 1 second, and a series of this behavior was determined as one instance of scratching behavior.

[5] = tested on: normal mice; assay: Behavior experiment: scratching behavior after intradermal injection of granzyme A; format: in vivo, mouse
Experimental: as §1

Molecule | Effect on enhanced activity of primary afferent after mosquito salivary gland extract injection [1] | Effect on scratching behavior increased by repetitive injections of mosquito salivary gland extract [2] | further results
CC(C)(C)c1ccc(C(O)CCCN2CCC(C(O)(c3ccccc3)c3ccccc3)CC2)cc1 (centres unmarked) [terfenadine] | not suppressed | is not suppressed | 
NCCc1c[nH]cn1 [histamine] |  |  | Scratching behavior caused by histamine [3]: does not cause scratching behavior
O=C1CC[C@@]2(O)[C@H]3Cc4ccc(O)c5c4[C@@]2(CCN3CC2CC2)[C@H]1O5 [naltrexone] |  |  | Effect on scratching behavior induced by intradermal injection of granzyme A [4]: suppressed
CN1CCCC(n2nc(Cc3ccc(Cl)cc3)c3ccccc3c2=O)CC1 (centres unmarked) [azelastine] | suppressed | is suppressed | 
granzyme A: serine protease expressed in CD4+ T cells; intradermally injected into mice to induce scratching (protein, listed as Homo sapiens) MRNSYRFLASSLSVVVSLLLIPEDVCEKIIGGNEVTPHSRPYMVLLSLDRKTICAGALIAKDWVLTAAHCNLNKRSQVILGAHSITREEPTKQIMLVKKEFPYPCYDPATREGDLKLLQLTEKAKINKYVTILHLPKKGDDVKPGTMCQVAGWGRTHNSASWSDTLREVNITIIDRKVCNDRNHYNFNPVIGMNMVCAGSLRGGRDSCNGDSGSPLLCEGVFRGVTSFGLENKCGDPRGPGVYILLSKKHLNWIIMTIKGAV |  |  | Dose giving peak scratching behavior ([5]; intradermal injection): 10 μg/site; Scratching behavior induced by intradermal injection ([5]; intradermal injection to rostral back, 0.1 to 100 μg/site): an itching reaction occurred; also recorded: induced; also recorded: induction of scratching behavior
